From patent US6342503B1, “1N-alkyl-n-arylpyrimidinamines and derivatives thereof” (DuPont Pharmaceuticals Company, priority 1993, dated 2002)
Counter-ions that a name gives are not always drawn.

Experiments:
CRF receptor = biological target: T1, CRF receptor (Rattus norvegicus, UniProt P35353); assay: In vitro CRF receptor binding assay (competition with [125I] ovine CRF, rat cortex membranes); settings: read-out: Inhibition Ki
T1 construct: 100 μl of membrane suspension as prepared above to give a total reaction volume of 300 μl; from tissue; host or cells: rat cerebral cortex membrane homogenate
T1 sequence (P35353 24-415): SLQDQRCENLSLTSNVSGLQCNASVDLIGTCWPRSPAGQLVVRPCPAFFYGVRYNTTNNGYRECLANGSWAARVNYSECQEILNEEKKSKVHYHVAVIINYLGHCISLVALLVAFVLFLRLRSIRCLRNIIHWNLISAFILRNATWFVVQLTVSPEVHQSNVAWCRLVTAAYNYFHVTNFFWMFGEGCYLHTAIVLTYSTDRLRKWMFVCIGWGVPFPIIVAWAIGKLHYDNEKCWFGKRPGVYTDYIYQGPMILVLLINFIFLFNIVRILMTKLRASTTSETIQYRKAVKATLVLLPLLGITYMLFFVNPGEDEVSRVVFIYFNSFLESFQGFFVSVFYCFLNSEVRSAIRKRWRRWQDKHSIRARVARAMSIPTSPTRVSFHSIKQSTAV
Procedure: In vitro Receptor Binding Assay
Tissue Preparation: Male Sprague Dawley rats (180-200 g) were sacrificed by decapitation and the cortex was dissected on ice, frozen whole in liquid nitrogen and stored at −70° C. until use. On the day of assay, frozen tissue was weighed and homogenized in 20 volumes of ice cold buffer containing 50 mM Tris, 10 mM MgCl2, 2 mM EGTA, pH 7.0 at 22° C. using a Polytron (Brinkmann Instruments, Westbury, N.Y.; setting 6) for 20 s. The homogenate was centrifuged at 48,000× g for 10 min at 4° C. The supernatant was discarded, and the pellet was re-homogenized in the same volume of buffer and centrifuged at 48,000× g for 10 min at 4° C. The resulting pellet was resuspended in the above buffer to a final concentration of 20-40 mg original wet weight/mL and used in the assays described below.
CRF Receptor Binding: Receptor binding assays were carried out essentially as described by E. B. De Souza, J. Neurosci. […]
All assays were carried out at equilibrium for 2 h at 22° C. as described by E. B. De Souza, J. Neurosci. […] The reaction was terminated by centrifugation of the tubes in a Beckman microfuge for 5 min at 12,000× g. Aliquots of the supernatant were collected to determine the “free” radioligand concentration. The remaining supernatant was aspirated and the pellets washed gently with ice-cold PBS plus 0.01% Triton X-100; centrifuged again and monitored for bound radioactivity as described above. […] This program has the distinct advantage of fitting the raw experimental data on an untransformed coordinate system where errors are most likely to be normally distributed and uncorrelated with the independent variable. […] The parameters for the affinity constants (KD) and receptor densities (Bmax) are also provided along with statistics on the general “fit” of the estimated parameters to the raw data.
Competition Curve Analysis
The resulting pellets were surface washed twice by centrifugation with 1 mL of ice-cold phosphate buffered saline and 0.01% Triton X-100; the supernatants discarded and the pellets monitored for radioactivity at approximately 80% efficiency. The level of non-specific binding was defined in the presence of […] unlabeled rat/humanCRF (r/hCRF). Data from competition curves were analyzed by the program LIGAND. […] Routinely, the data were analyzed using a one- and two-site model comparing the “goodness of fit” between the models in order to accurately determine the Ki. Statistical analyses provided by LIGAND allowed the determination of whether a single-site or multiple-site model should be used.
In Table 17; the Ki values were determined using the assay conditions described above.

| melting point | Ki (CRF receptor) | SMILES |
| --- | --- | --- |
| 141 to 142 °C | – | CCN(c1nc(C)cc(C)n1)c1ccc(C(C)C)cc1SC (as salt: hydrochloride) [compound 170, N-(2-methylthio-4-(1-methylethyl)phenyl)-N-ethyl-4,6dimethyl-2-pyrimidinamine] |
| 145 to 147 °C | – | CCN(c1nccc(C)n1)c1ccc(C(C)C)cc1Br (as salt: hydrochloride) [compound 49, N-(2-Bromo-4-(1-methylethyl)phenyl)-N-ethyl-4-methyl-2-pymidinamine] |
| 104 to 106 °C | – | CCN(c1cc(OC)nc(OC)n1)c1ccc(C(C)C)cc1Br (as salt: hydrochloride) [compound 130] |
| 99 to 100 °C | 501 to 2000 nM | CCOC(=O)c1ccc(N(CC)c2nc(C)cc(C)n2)c(SC)c1 [compound 184, N-(4-carboethoxy-2-methylthiophenyl)-N-ethyl-4,6-dimethyl-2-pyrimidinamine] |
| 96 to 98 °C | < 500 nM | CCN(c1nc(C)cc(N2CCOCC2)n1)c1ccc(C(C)C)cc1I [compound 30, N-Ethyl-N-(2-iodo4-(1-methylethyl)phenyl)4-morpholinyl-6-methyl-2-pyrimidinamine] |
| 123.3 °C | – | Cc1cc(Cl)c2c(C#N)cn(-c3ccc(C(C)C)cc3Br)c2n1 [Synth. Ex. 74, 1-(2-Bromo-4-isopropylphenyl)-4-chloro-3-cyano-6-methyl-7-azaindole] |
| 101 to 103 °C | – | CCN(c1nc(C)cc(OC[C@@H]2CCCN2C)n1)c1ccc(C(C)C)cc1SC (as salt: hydrochloride) [compound 177, N-(2-methylthio4-(1-methylethyl)phenyl)-N-ethyl-4(S)-(N-methyl-2′-pyrrolidinomethoxy)-6-methyl-2-pyrimidinamine] |
| 157 to 159 °C | – | Cc1cc(C)nc(N2CCCSc3cc(C(C)C)ccc32)n1 (as salt: hydrochloride) [compound 173] |
| 117 to 119 °C | – | CCN(c1nc(C)cc(CN2CCN(c3ccccn3)CC2)n1)c1ccc(C(C)C)cc1Br (as salt: HCl) [compound 280] |
| 128 to 130 °C | – | CCSc1cc(C(C)C)ccc1N(CC)c1nc(C)cc(C)n1 (as salt: hydrochloride) [compound 175, N-(2-ethylthio-4-(1-methylethyl)phenyl)-N-ethyl-4,6dimethyl-2-pyrimidinamine] |
| – | 501 to 2000 nM | Cc1ccc(N(C)c2nc(C)cc(C)n2)c(Br)c1 [compound 1, N-(2-bromo-4-methylphenyl)-N-methyl-4,6-dimethyl-2-pymidinamine] |
| 105 to 107 °C | – | CCN(c1nc(C)cc(C(=O)c2c[nH]c3ccccc23)n1)c1ccc(C(C)C)cc1Br (as salt: HCl) [compound 283] |
| – | < 500 nM | CCN(c1nc(C)cc(COc2ccccc2)n1)c1ccc(C(C)C)cc1Br [compound 209] |

The remaining lines, values behind:

| SMILES | melting point | Ki (CRF receptor) |
| --- | --- | --- |
| Cc1cc(Cl)c2c(C#N)cn(-c3ccc(C(C)C)cc3Br)c2n1 [Example 255] | 179.2 °C | 501 to 2000 nM |
| Cc1cc(C)nc(N(C)c2ccc(C(C)C)cc2Br)n1 (as salt: hydrochloride) [compound 4, N-(2-bromo-4-(1-methylethyl)phenyl)-N-methyl-4,6-dimethyl-2-pymidinamine] | 163 to 164 °C | – |
| CCCCc1ccc(N(CCC)c2nc(C)cc(C)n2)c(Br)c1 [compound 20] | 49 to 50 °C | < 500 nM |
| Cc1cc(C)nc(N(CC2CC2)c2ccc(C(C)C)cc2Br)n1 (as salt: hydrochloride) [compound 33] | 146 to 148 °C | – |
| CCN(c1nc(C)cc(C)n1)c1ccc(C(C)C)cc1[S+](C)[O-] (stereo not shown) [compound 169, N-(2-methylsulfinyl-4-(1-methylethyl)phenyl)-N-ethyl-4,6-dimethyl-2-pyrimidinamine] | 144 to 146 °C | – |
| CCN(c1nc(C)cc(C)n1)c1ccc(C(C)C)cc1Br (as salt: hydrochloride) [compound 21, N-(2-bromo-4-(1-methylethyl)phenyl)-N-ethyl-4,6dimethyl-2-pyrimidinamine] | 151 to 153 °C | – |
| Cc1cc(C)nc(N(C)c2ccccc2I)n1 (as salt: hydrochloride) [compound 53] | 164 to 166 °C | – |
| CCN(c1nc(C)cc(CN2CCN(c3ncccn3)CC2)n1)c1ccc(C(C)C)cc1Br (as salt: HCl) [compound 281] | 125 to 127 °C | – |
| Cc1ccc(N(C)c2nc(C)cc(C)n2)c(Br)c1 (as salt: hydrochloride) [compound 1, N-(2-bromo-4-methylphenyl)-N-methyl-4,6-dimethyl-2-pymidinamine] | 120 to 121 °C | – |
| C=CCN(c1nc(C)cc(N2CCOCC2)n1)c1ccc(C(C)C)cc1Br (as salt: hydrochloride) [compound 17] | 208 to 211 °C | – |
| COc1ccc(N(C)c2nc(C)cc(C)n2)c(OC)c1 (as salt: hydrochloride) [compound 2] | 112 to 113 °C | – |
| Cc1cc(C)nc(N(C)c2ccc(I)cc2)n1 (as salt: hydrochloride) [compound 52] | 175 to 177 °C | – |
| CCN(c1nc(C)cc(OCCN(C)C)n1)c1ccc(C(C)C)cc1Br (as salt: hydrochloride) [compound 161] | 143 to 146 °C | – |
| CCN(c1nc(C)cc(CN2CCN(c3ccccc3OC)CC2)n1)c1ccc(C(C)C)cc1Br (as salt: HCl) [compound 275] | 102 to 104 °C | – |
| CCN(c1nc(C)nc(N2CCOCC2)n1)c1ccc(C(C)C)cc1Br (as salt: hydrochloride) [compound 134, N-[2-bromo-4-(1-methylethyl)phenyl]-N-ethyl-4-methyl-6-(4-morpholinyl)-1,3,5-triazin-2-amine] | 59 to 63 °C | – |
| CCc1ccc(N(CC)c2nc(C)cc(C)n2)c(SC)c1 (as salt: hydrochloride) [compound 182, N-(4-ethyl-2-methylthiophenyl)-N-ethyl-4,6-dimethyl-2-pyrimidinamine] | 140 to 141 °C | – |
| CCN(c1nc(C)nc(OCc2ccccc2)n1)c1ccc(C(C)C)cc1Br (as salt: hydrochloride) [compound 242, N-[2-bromo-4(1-methylethyl)phenyl]-N-ethyl-4-methyl-6-benzyloxy-1,3,5 triazin-2-amine] | 89 to 90 °C | – |
| C=CCN(c1nc(C)cc(C)n1)c1ccccc1Br (as salt: hydrochloride) [compound 3] | 127 to 129 °C | – |
| CCCCc1ccc(N(CC)c2nc(CC)cc(CC)n2)c(Br)c1 (as salt: hydrochloride) [compound 24] | 116 to 118 °C | – |
| CCc1ccc(N(C)c2nc(C)cc(C)n2)c(Br)c1 (as salt: hydrochloride) [compound 9, N-(2-bromo-4-ethylphenyl)-N-methyl-4,6-dimethyl-2-pypimidinamine] | 126 to 127 °C | – |
| Cc1cc(C)nc(N(C)c2ccc(C(C)(C)C)cc2Br)n1 (as salt: hydrochloride) [compound 11] | 193 to 195 °C | – |
| CCN(c1nc(C)cc(NN)n1)c1ccc(C(C)C)cc1Br (as salt: hydrochloride) [compound 146] | 117 to 121 °C | – |
| CCCCc1ccc(N(CC)c2nc(C)cc(C)n2)c(Br)c1 (as salt: hydrochloride) [compound 19] | 124 to 126 °C | – |
| CCc1ccc(N(CC)c2nc(C)cc(C)n2)c(SC)c1 [compound 182, N-(4-ethyl-2-methylthiophenyl)-N-ethyl-4,6-dimethyl-2-pyrimidinamine] | – | < 500 nM |
| CCN(c1nc(C)nc(N2CCOCC2)n1)c1ccc(C(C)C)cc1Br [compound 134, N-[2-bromo-4-(1-methylethyl)phenyl]-N-ethyl-4-methyl-6-(4-morpholinyl)-1,3,5-triazin-2-amine] | – | < 500 nM |
| CCN(c1nc(C)nc(N2CCOCC2)n1)c1c(OC)cc(OC)cc1OC [compound 239] | – | < 500 nM |
